Where a name gives a salt, the structure may show the parent alone. Read-outs that look alike come from different tables or passages of the source.
Tests used:
[1] = Acute toxicity in the mouse; conditions: Albino Swiss CD-1, in vivo
Method: The acute toxicity of the tested compound CVie214-salt and CVie216-salt have been determined in the mouse (Albino Swiss CD-1, body weight 30 g). Compounds have been orally administered or intravenously injected at increasing doses to identify the dose causing 50% mortality. Mortality occurred within 30 min after the administration and survival after 24 h.
As comparison, the acute toxicity for the reference compounds Digoxin and Istaroxime were also included. Digoxin refers to literature data (www.lookchem.com, Reference for Digoxin intravenous: Afifi A M, Ammar E M. Pharmacological Research Communications. Vol. 6, Pg. 417, 1974; Reference for Digoxin oral: Archives Internationales de Pharmacodynamie et de Therapie. Vol. 153, Pg. 436, 1965) (Table 3).

STZ diabetic rats = assay: Haemodynamics in streptozotocin diabetic rats (echocardiography); assay type: in vivo, rat; conditions: for diastolic function (in words) / overall cardiac function, SV and CO (in words): IV infusion
Method: CVie214 and CVie216 were tested in a diabetic rat model. Briefly, rats were injected with streptozotocin (STZ). After 7-9 weeks from STZ injection, rats were submitted to transthoracic echocardiographic and Doppler evaluation performed under urethane anesthesia. Two-dimensionally guided M-mode recordings were used to obtain short-axis measurements of left ventricular end-diastolic diameter (LVEDD), left ventricular end-systolic diameter (LVESD), posterior (PW) and septal (SW) diastolic wall thickness according to the American Society of Echocardiography guidelines (Lang R M et al., Eur J Echocardiography 2006, 7:79-108). Fractional shortening was calculated as FS=(LVEDD−LVESD)/LVEDD. Relative wall thickness was calculated as PWTd+IVSTd/LVEDD. Mitral inflow was measured by pulsed Doppler at the tips of mitral leaflets from an apical 4-chamber view to obtain early and late filling velocities (E, A) and deceleration time of early filling velocity (DT). The deceleration slope was calculated as E/DT ratio. The mitral deceleration index was calculated as DT/E ratio. Tissue Doppler Imaging (TDI) was evaluated from the apical 4-chamber view to record septal mitral annular movements, i.e., peak myocardial systolic (s′) and early and late diastolic velocity (e′ and a′).
After baseline hemodynamic measurements were taken, the rats were administered Digoxin, CVie214, CVie216 and compared to control. Digoxin, used as reference drug, was intravenously infused at 0.11 mg/kg/min for 15 min and echocardiographic parameters measured after 1 h. CVie214-salt and CVie216-salt were intravenously infused in STZ diabetic rats at 0.2 mg/kg/min and echocardiographic parameters were measured after 15 min and 30 min.
Tables 4-6 show the haemodynamic parameters in STZ diabetic rats for Digoxin, CVie214-salt, and Cvie216-salt.

in vivo = assay: in vivo; parameters: dose or concentration left out as unconfirmed; conditions: rat
[2] = target: dog renal Na^+/K^+ ATPase (Canis lupus familiaris (Dog) (Canis familiaris), UniProt P50997); conditions: read-out: IC50 inhibition of dog renal Na+/K+ ATPase; purified dog kidney enzyme;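 also: enzyme preincubated with inhibitor 10 min at 37 °C, then K^+ and ^32P-ATP added for 15 min, released ^32P counted, activity relative to untreated control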
Text: Inhibition of Dog Renal Na^+/K^+ ATPase Activity
The compounds were thus tested for their inhibitory effect on the canine renal Na^+/K^+ ATPase enzyme.
Kidneys were excised from 1-3 year-old male beagle dogs (WuXi AppTec, Suzhou Co., Ltd. 1318 Wuzhong Ave., Wuzhong District Suzhou, 215104 P.R. China) under pentobarbital anesthesia (Import Authorization from Italian Health Ministry 0009171-09/04/2015-DGSAF-COD_UO-P, 2015). Kidneys were sliced and the outer medulla was dissected and suspended (1 g/10 ml) in a sucrose-histidine solution containing 250 mM sucrose, 30 mM histidine, and 5 mM EDTA, pH 7.2. The tissue was homogenized by using an Ultra Turrax homogenizer. The sample was centrifuged at 6,000 g for 15 min. Next, the supernatant was decanted and centrifuged at 48,000 g for 30 min. The pellet was suspended in the sucrose-histidine buffer and incubated for 20 min with a sodium-dodecyl-sulphate (SDS) solution dissolved in a gradient buffer containing 25 mM imidazole and 1 mM EDTA, pH 7.5. The sample was layered on the top of a sucrose discontinuous gradient (10, 15, and 29.4%) and centrifuged at 60,000 g for 115 min. The pellet was suspended in the gradient buffer.
Increasing concentrations of the standard ouabain, or tested compound, were incubated with 0.3 μg of purified dog kidney enzyme for 10 min at 37° C. in 120 μl final volume of a medium containing 140 mM NaCl, 3 mM MgCl2, 50 mM Hepes-Tris, 3 mM ATP, pH 7.5. Then, 10 μl of a solution containing 10 mM KCl and 20 nCi of ^32P-ATP (3-10 Ci/mmol, Perkin Elmer) were added. The reaction was allowed to continue for 15 min at 37° C. and then stopped by acidification with 20% v/v ice-cold perchloric acid. ^32P was separated by centrifugation with activated Charcoal (Norit A, Serva) and the radioactivity was counted. The inhibitory activity was expressed as percent of the control samples carried out in the absence of ouabain, or tested compound.

SERCA2a = SERCA2a (Cavia porcellus, UniProt A0A286XD73); conditions: literature; cited from earlier work
SERCA2a, sequence (A0A286XD73 1-997): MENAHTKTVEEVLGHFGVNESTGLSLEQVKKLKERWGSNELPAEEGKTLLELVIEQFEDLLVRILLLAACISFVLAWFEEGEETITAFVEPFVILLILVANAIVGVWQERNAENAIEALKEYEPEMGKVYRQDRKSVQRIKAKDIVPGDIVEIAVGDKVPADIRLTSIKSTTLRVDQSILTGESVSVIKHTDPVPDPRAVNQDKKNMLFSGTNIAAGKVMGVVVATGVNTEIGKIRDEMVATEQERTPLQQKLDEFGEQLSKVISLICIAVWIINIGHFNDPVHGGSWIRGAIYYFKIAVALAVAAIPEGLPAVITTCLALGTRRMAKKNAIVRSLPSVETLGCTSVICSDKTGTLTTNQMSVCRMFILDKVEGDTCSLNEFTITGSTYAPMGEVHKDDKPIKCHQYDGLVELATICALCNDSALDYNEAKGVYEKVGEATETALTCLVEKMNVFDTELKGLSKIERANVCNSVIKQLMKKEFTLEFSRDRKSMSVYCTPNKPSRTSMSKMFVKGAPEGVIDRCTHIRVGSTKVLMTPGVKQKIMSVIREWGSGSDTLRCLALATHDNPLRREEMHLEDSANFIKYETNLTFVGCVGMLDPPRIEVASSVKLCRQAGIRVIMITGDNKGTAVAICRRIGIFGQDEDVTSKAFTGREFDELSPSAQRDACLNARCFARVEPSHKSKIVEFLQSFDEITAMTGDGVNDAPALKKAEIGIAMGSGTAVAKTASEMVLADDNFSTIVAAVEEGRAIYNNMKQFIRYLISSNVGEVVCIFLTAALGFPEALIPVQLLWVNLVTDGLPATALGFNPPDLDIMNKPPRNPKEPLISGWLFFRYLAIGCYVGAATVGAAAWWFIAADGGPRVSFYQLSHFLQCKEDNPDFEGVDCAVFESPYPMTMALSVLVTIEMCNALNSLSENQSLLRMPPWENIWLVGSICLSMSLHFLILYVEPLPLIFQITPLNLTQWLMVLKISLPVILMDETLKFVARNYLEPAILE

[3] = tested on: rat ventricular myocytes isolated from STZ rats; conditions: literature; cited from earlier work
[4] = tested on: mouse (Albino Swiss CD-1); conditions: data from literature, cited from earlier work
[5] = after 15 min IV infusion 0.2 mg/kg/min
[6] = after 30 min IV infusion 0.2 mg/kg/min
[7] = after 15 min Digoxin IV infusion 0.11 mg/kg/min

With `C[C@]12CC[C@H](CCCC(=O)O)CC1[C@@H](O)CC1C2CC[C@]2(C)C(=O)CCC12` (stereo partly drawn) [CVie214-salt, 4-(6alpha-hydroxy-17-oxoandrostane-3-yl) butyric acid] the LD50 at 24 h ([1]; iv) was 300 mg/kg, the LD50 at 24 h ([1]; oral, os) was over 800 mg/kg and the “diastolic function (in words)” value (STZ diabetic rats) was “ameliorated diastolic function”. For the same molecule, the “overall cardiac function, SV and CO (in words)” value (STZ diabetic rats) was “improvement”, the “A late filling velocity of mitral inflow” value (STZ diabetic rats; [5]) was 0.65 ± 0.13 m/s and the CO cardiac output (STZ diabetic rats; [5]) was 177.23 ± 40.64 mL/min. The “DT deceleration time of E wave” value (STZ diabetic rats; [5]) was 42.5 ± 10.19 ms, the “DT/E mitral deceleration index” value (STZ diabetic rats; [5]) was 49.52 ± 12.41 s2/m and the “E early filling velocity of mitral inflow” value (from here on “E early filling velocity”) (STZ diabetic rats; [5]) was 0.88 ± 0.15 m/s. The “E/A index of LV function” value (STZ diabetic rats; [5]) was 1.36 ± 0.17, the E/DT deceleration slope (STZ diabetic rats; [5]) was 21.49 ± 5.8 m/s2 and the “E/e′ index of LV filling pressure” value (STZ diabetic rats; [5]) was 37.49 ± 4.34. For the same molecule, the FS fractional shortening (STZ diabetic rats; [5]) was 58.1 ± 8.59%, the HR heart rate (STZ diabetic rats; [5]) was 268 ± 54 beat/min and the SV stroke volume (STZ diabetic rats; [5]) was 0.68 ± 0.19 ml/beat. For the same molecule, the “a′ TDI late relaxation velocity” value (STZ diabetic rats; [5]) was 29.13 ± 6.56 cm/s, the “e′ TDI early relaxation velocity” value (STZ diabetic rats; [5]) was 23.33 ± 2.62 cm/s and the “s′ TDI contraction velocity” value (STZ diabetic rats; [5]) was 22.45 ± 3.12 cm/s. For the same molecule, the “A late filling velocity of mitral inflow” value (STZ diabetic rats; [6]) was 0.69 ± 0.11 m/s, the CO cardiac output (STZ diabetic rats; [6]) was 175.15 ± 33.96 mL/min and the “DT deceleration time of E wave” value (STZ diabetic rats; [6]) was 42.15 ± 9.88 ms. The “DT/E mitral deceleration index” value (STZ diabetic rats; [6]) was 48.51 ± 16.44 s2/m, the “E early filling velocity” value (STZ diabetic rats; [6]) was 0.91 ± 0.16 m/s and the “E/A index of LV function” value (STZ diabetic rats; [6]) was 1.34 ± 0.21. The E/DT deceleration slope (STZ diabetic rats; [6]) was 23.18 ± 8.37 m/s2, the “E/e′ index of LV filling pressure” value (STZ diabetic rats; [6]) was 37.47 ± 4.48 and the FS fractional shortening (STZ diabetic rats; [6]) was 60.69 ± 8.36%. For the same molecule, the HR heart rate (STZ diabetic rats; [6]) was 252 ± 49 beat/min, the SV stroke volume (STZ diabetic rats; [6]) was 0.71 ± 0.16 ml/beat and the “a′ TDI late relaxation velocity” value (STZ diabetic rats; [6]) was 28.94 ± 5.32 cm/s. The “e′ TDI early relaxation velocity” value (STZ diabetic rats; [6]) was 24.24 ± 2.34 cm/s, the “s′ TDI contraction velocity” value (STZ diabetic rats; [6]) was 21.82 ± 2.81 cm/s and the bioavailability (in vivo) was 41.5%.
In the case of `C[C@H]1O[C@@H](O[C@H]2[C@@H](O)C[C@H](O[C@H]3[C@@H](O)C[C@H](O[C@H]4CC[C@@]5(C)[C@H](CC[C@@H]6[C@@H]5C[C@@H](O)[C@]5(C)[C@@H](C7=CC(=O)OC7)CC[C@]65O)C4)O[C@@H]3C)O[C@@H]2C)C[C@H](O)[C@@H]1O` [Digoxin, reference compound], the “diastolic function (in words)” value (STZ diabetic rats) is reported as “ameliorated diastolic function”, the “overall cardiac function, SV and CO (in words)” value (STZ diabetic rats) is reported as “did not affect” and the “A late filling velocity of mitral inflow” value (STZ diabetic rats; [7]) is reported as 0.79 ± 0.19 m/s. The CO cardiac output (STZ diabetic rats; [7]) was 155.6 ± 45.7 mL/min, the “DT deceleration time of E wave” value (STZ diabetic rats; [7]) was 44.1 ± 10.29 ms and the “DT/E mitral deceleration index” value (STZ diabetic rats; [7]) was 50.18 ± 17.05 s2/m. For the same molecule, the “E early filling velocity” value (STZ diabetic rats; [7]) was 0.92 ± 0.19 m/s, the “E/A index of LV function” value (STZ diabetic rats; [7]) was 1.20 ± 0.21 and the E/DT deceleration slope (STZ diabetic rats; [7]) was 22.66 ± 9.56 m/s2. For the same molecule, the “E/e′ index of LV filling pressure” value (STZ diabetic rats; [7]) was 38.95 ± 7.31, the FS fractional shortening (STZ diabetic rats; [7]) was 53.1 ± 5.6*6% and the HR heart rate (STZ diabetic rats; [7]) was 257 ± 36 beat/min. For the same molecule, the SV stroke volume (STZ diabetic rats; [7]) was 0.6 ± 0.12 ml/beat, the “a′ TDI late relaxation velocity” value (STZ diabetic rats; [7]) was 29.78 ± 6.17 cm/s and the “e′ TDI early relaxation velocity” value (STZ diabetic rats; [7]) was 23.82 ± 2.87 cm/s. The “s′ TDI contraction velocity” value (STZ diabetic rats; [7]) was 26.03 ± 4.66 cm/s, the IC50 [2] was 180 nM and the “stimulation of SERCA2a activity (in words)” value (SERCA2a) was “failed to stimulate”. The “effect detected by the SR loading protocol” value [3] was “did not detect any effect”, the LD50 ([4]; iv) was 7.7 mg/kg and the LD50 ([4]; os) was 17.8 mg/kg.
